Laboratory results: ChEMBL document CHEMBL3832073, “DailyMed|setid=217e52b5-3a7b-4bbe-af3c-b18de7d426c3 | ABILIFY - aripiprazole tablet|Rebel Distributors Corp”

Legend:
[1] = Evaluation of pharmacokinetic parameters for Aripiprazole following oral, intravenous or intramuscular administration of azipiprazole.; type: ADME, organism-based; settings: human, in vivo, dosed compound id 19, dosed compound name ARIPIPRAZOLE, tissue Plasma
[2] = Evaluation of pharmacokinetic parameters for Aripiprazole following single oral administration of azipiprazole.; type: ADME, organism-based; settings: human, in vivo, dosed compound id 19, dosed compound name ARIPIPRAZOLE, regimen Single dose, tissue Plasma

bioavailability ([1]; im, at 5 mg, gender male and female, route intramuscular): 100%
Tmax ([1]; im, gender male and female, route intramuscular): 1 h
Vd ([1]; route iv, read-out: Vss): 404 L
Tmax [2]: 3 to 5 h
Compound: O=C1CCc2ccc(OCCCCN3CCN(c4cccc(Cl)c4Cl)CC3)cc2N1 [ARIPIPRAZOLE]
